Biological target: human active recombinant p38α-6His tagged (Homo sapiens, UniProt Q16539)
Assay: P38 Alpha Enzyme Assay (AlphaScreen, biotinylated-ATF2 substrate);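 also: 0.5 nM final p38α, reaction started with ATP and run 45 min at 37 °C, phospho-ATF2 read by antibody-based AlphaScreen, background wells quenched with EDTA before ATP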
Type: biochemical
Conditions: p38 alpha enzyme inhibition; means of replicate determinations; 4 h pre-incubation at 37° C.; SD of assay 0.2-0.3 log units

human active recombinant p38α-6His tagged, sequence (Q16539 whole entry): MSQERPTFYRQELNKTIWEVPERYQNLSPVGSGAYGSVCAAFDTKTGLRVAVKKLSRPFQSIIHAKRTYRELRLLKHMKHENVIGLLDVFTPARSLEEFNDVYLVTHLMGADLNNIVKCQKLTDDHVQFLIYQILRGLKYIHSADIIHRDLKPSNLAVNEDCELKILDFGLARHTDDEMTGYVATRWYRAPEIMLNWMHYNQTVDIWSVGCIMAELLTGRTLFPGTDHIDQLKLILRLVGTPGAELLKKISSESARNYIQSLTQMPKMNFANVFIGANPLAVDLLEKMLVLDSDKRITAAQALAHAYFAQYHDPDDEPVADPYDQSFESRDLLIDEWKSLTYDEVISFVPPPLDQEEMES

Row | Compound | pIC50
1 | Cc1ccc(C(=O)NC2CC2)cc1-n1ccnc(N[C@@H](c2ccccc2)C2CCN(C(=O)OCc3ccccc3)CC2)c1=O [Example 102, 4-[(R)-[[4-[5-[(Cyclopropylamino)carbonyl]-2-methylphenyl]-3,4-dihydro-3-oxopyrazinyl]amino]phenylmethyl]-1-piperidinecarboxylic acid, phenylmethyl ester] | 6.3
2 | Cc1ccc(C(=O)NC2CC2)cc1-n1ccnc(N2CCN(CCN3CCCC3)C(c3ccccc3)C2)c1=O (stereo not shown) [Example 123, N-Cyclopropyl-4-methyl-3-[2-oxo-3-[3-phenyl-4-[2-(1-pyrrolidinyl)ethyl]-1-piperazinyl]-1(2H)-pyrazinyl]-benzamide] | 7
3 | COC[C@@H]1CCCN1C[C@@H](C)[C@@H](Nc1nccn(-c2cc(C(=O)NC3CC3)ccc2C)c1=O)c1ccccc1 [Example 150, N-Cyclopropyl-3-[3-[[(1R,2R)-3-[(2S)-2-(methoxymethyl)-1-pyrrolidinyl]-2-methyl-1-phenylpropyl]amino]-2-oxo-1(2H)-pyrazinyl]-4-methyl-benzamide] | 7.9
4 | Cc1ccc(C(=O)NC2CC2)cc1-n1ccnc(N[C@@H](c2ccccc2)[C@@H](C)CN2CCC(N(C)C)CC2)c1=O [Example 176, N-Cyclopropyl-3-[3-[[(1R,2S)-3-[4-(dimethylamino)-1-piperidinyl]-2-methyl-1-phenylpropyl]amino]-2-oxo-1(2H)-pyrazinyl]-4-methyl-benzamide] | 8.7
5 | Cc1ccc(C(=O)NC2CC2)cc1-n1ccnc(N(CCN(C)C)Cc2ccccc2)c1=O [Example 121, N-Cyclopropyl-3-[3-[[2-(dimethylamino)ethyl](phenylmethyl)amino]-2-oxo-1(2H)-pyrazinyl]-4-methyl-benzamide] | 6
6 | Cc1ccc(C(=O)NC2CC2)cc1-n1ccnc(NC(C)(C)c2ccccc2OCCCCN2CCN(C)CC2)c1=O [Example 206, N-Cyclopropyl-4-methyl-3-[3-[[1-methyl-1-[2-[4-(4-methyl-1-piperazinyl)butoxy]phenyl]ethyl]amino]-2-oxo-1(2H)-pyrazinyl]-benzamide] | 9.3
7 | Cc1cccc(CCNc2nccn(-c3cc(C(=O)NC4CC4)ccc3C)c2=O)c1 [Example 73, N-Cyclopropyl-4-methyl-3-[3-[[2-(3-methylphenyl)ethyl]amino]-2-oxo-1(2H)-pyrazinyl]-benzamide] | 7.1
8 | CONC(=O)c1ccc(C)c(-n2ccnc(N[C@@H](c3ccccc3)[C@@H](C)CN3CCCC3)c2=O)c1 [Example 159, N-Methoxy-4-methyl-3-[3-[[(1R,2S)-2-methyl-1-phenyl-3-(1-pyrrolidinyl)propyl]amino]-2-oxo-1(2H)-pyrazinyl]-benzamide] | 9.6
9 | Cc1ccc(C(=O)NC2CC2)cc1-n1ccnc(N[C@@H](c2ccccc2)[C@@H](C)CN2CCC(F)(F)CC2)c1=O [Example 175, N-Cyclopropyl-3-[3-[[(1R,2S)-3-(4,4-difluoro-1-piperidinyl)-2-methyl-1-phenylpropyl]amino]-2-oxo-1(2H)-pyrazinyl]-4-methyl-benzamide] | 9
10 | Cc1ccc(C(=O)NC2CC2)cc1-n1ccnc(NCC(C)(C)C)c1=O [Example 49, N-Cyclopropyl-3-[3-[(2,2-dimethylpropyl)amino]-2-oxo-1(2H)-pyrazinyl]-4-methyl-benzamide] | 6.9
11 | Cc1ccc(C(=O)NC2CC2)cc1-n1ccnc(N[C@@H](c2ccccc2)[C@@H](C)CN2CCNC(=O)C2)c1=O [Example 178, N-Cyclopropyl-4-methyl-3-[3-[[(1R,2S)-2-methyl-3-(3-oxo-1-piperazinyl)-1-phenylpropyl]amino]-2-oxo-1(2H)-pyrazinyl]-benzamide] | 8.8
12 | Cc1ccc(C(=O)NC2CC2)cc1-n1ccnc(NCCc2cccc(O)c2)c1=O [Example 71, N-Cyclopropyl-3-[3-[[2-(3-hydroxyphenyl)ethyl]amino]-2-oxo-1(2H)-pyrazinyl]-4-methyl-benzamide] | 6.8

Further lines, results first:

Row | pIC50 | Compound
13 | 10.2 | COCCNCCOc1ccccc1C(C)(C)Nc1nccn(-c2cc(C(=O)NC3CC3)cc(F)c2C)c1=O [Example 255, N-Cyclopropyl-3-fluoro-5-[3-[[1-[2-[2-[(2-methoxyethyl)amino]ethoxy]phenyl]-1-methylethyl]amino]-2-oxo-1(2H)-pyrazinyl]-4-methyl-benzamide]
14 | 10.1 | CNCCOc1ccccc1C1(Nc2nccn(-c3cc(C(=O)NOC)ccc3C)c2=O)CC1 [Example 317, N-Methoxy-4-methyl-3-{3-[(1-{2-[2-(methylamino)ethoxy]phenyl}cyclopropyl)amino]-2-oxopyrazin-1(2H)-yl}benzamide]
15 | 9.5 | CCN(C)CCOc1ccccc1C1(Nc2nccn(-c3cc(C(=O)NC4CC4)ccc3C)c2=O)CC1 [Example 241, N-Cyclopropyl-3-[3-[[1-[2-[2-(ethylmethylamino)ethoxy]phenyl]cyclopropyl]amino]-2-oxo-1(2H)-pyrazinyl]-4-methyl-benzamide]
16 | 9.7 | Cc1ccc(C(=O)NC2CC2)cc1-n1ccnc(NC2(c3cccc(F)c3OCCNC[C@@H](C)O)CC2)c1=O [Example 283, N-Cyclopropyl-3-[3-({1-[3-fluoro-2-(2-{[(2R)-2-hydroxypropyl]amino}ethoxy)phenyl]cyclopropyl}amino)-2-oxopyrazin-1(2H)-yl]-4-methylbenzamide]
17 | 9 | Cc1ccc(C(=O)NC2CC2)cc1-n1ccnc(N[C@@H](c2ccccc2)[C@@H](C)CN2CC[C@H](O)C2)c1=O [Example 190, N-Cyclopropyl-3-[3-[[(1R,2S)-3-[(3S)-3-hydroxy-1-pyrrolidinyl]-2-methyl-1-phenylpropyl]amino]-2-oxo-1(2H)-pyrazinyl]-4-methyl-benzamide]
18 | 9.6 | CCNCCOc1ccccc1C(C)(C)Nc1nccn(-c2cc(C(=O)NC3CC3)ccc2C)c1=O [Example 198, N-Cyclopropyl-3-[3-[[1-[2-[2-(ethylamino)ethoxy]phenyl]-1-methylethyl]amino]-2-oxo-1(2H)-pyrazinyl]-4-methyl-benzamide]
19 | 9.6 | Cc1ccc(C(=O)NC2CC2)cc1-n1ccnc(NC2(c3ccccc3OCCN3CCC[C@H]3CO)CC2)c1=O [Example 239, N-Cyclopropyl-3-[3-[[1-[2-[2-[(2S)-2-(hydroxymethyl)-1-pyrrolidinyl]ethoxy]phenyl]cyclopropyl]amino]-2-oxo-1(2H)-pyrazinyl]-4-methyl-benzamide]
20 | 8.5 | CNCCOc1ccccc1C(C)(C)Nc1nccn(-c2cc(C(=O)NC3(C)CC3)ccc2C)c1=O [Example 227, 4-Methyl-N-(1-methylcyclopropyl)-3-[3-[[1-methyl-1-[2-[2-(methylamino)ethoxy]phenyl]ethyl]amino]-2-oxo-1(2H)-pyrazinyl]-benzamide]
21 | 9.9 | CCNCCOc1ccccc1C1(Nc2nccn(-c3cc(C(=O)NC4CC4)ccc3C)c2=O)CCC1 [Example 269, N-Cyclopropyl-3-[3-[[1-[2-[2-(ethylamino)ethoxy]phenyl]cyclobutyl]amino]-2-oxo-1(2H)-pyrazinyl]-4-methyl-benzamide]
22 | 9.9 | Cc1ccc(C(=O)NC2CC2)cc1-n1ccnc(NC2(c3ccccc3OCCN[C@H](C)CO)CC2)c1=O [Example 249, N-Cyclopropyl-3-[3-[[1-[2-[2-[[(1R)-2-hydroxy-1-methylethyl]amino]ethoxy]phenyl]cyclopropyl]amino]-2-oxo-1(2H)-pyrazinyl]-4-methyl-benzamide]

From US20120214822A1 (ASTRAZENECA AB, priority 2007, published 2012)
